“Also recorded” adds a separate entry of the source. Like-named read-outs stand apart in the source and are kept apart here.
Experiments:
bladder cancer cells = assay: Migration and invasion assays; assay type: cell-based, human
Description: Cell migration experiments were carried out using 8-μm pore size migration chambers (Falcon, Becton Dickinson) precoated at 4° C. overnight with fibronectin (Becton Dickinson) at a concentration of 5 μg per square centimeter in PBS. The following day, the fibronectin solution was aspirated and the migration chambers were rinsed one time with water and allowed to air dry prior to the migration experiment. Cell invasion experiments were carried out using re-hydrated 8-μm pore size invasion chambers precoated with Matrigel (Becton Dickinson). Cells at 80% confluence were trypsinized, harvested, and counted. For each condition, cells were seeded at 25,000 cells/well (T24) or 100,000 cells/well (SV-HUC) in 500 μl serum free media, then added to each migration and invasion chamber. Medium (750 μl) containing 10% serum was used as a chemoattractant in the lower chamber. Both upper and lower chambers contained the indicated compound. Cells were allowed to migrate for eight hours or invade for 24 hours at 37° C. in the presence of 5% CO2. […] Migrating and invading cells in 10 high power fields in each chamber were counted and the mean cell number was calculated. Each experiment was conducted in triplicate and repeated three times.

[1] = tested on: TCC-SUP human bladder cancer xenografts; assay: Xenograft mouse model, subcutaneous TCC-SUP in nu/nu mice; assay type: in vivo
Description: FIGS. 9A-B. TP receptor antagonist inhibits bladder cancer tumor growth. (FIG. 9A) Anti-tumor effects of GR32191 and cisplatin treatment in immunocompromised mice. Subcutaneous TCC-SUP human bladder cancer xenografts in nude mice were treated with vehicle control (12 mice), GR32191 (15 mice), 5 mg/kg cisplatin (cisplatin high) (12 mice), 5 mg/kg cisplatin in combination with GR32191 (13 mice), or 0.5 mg/kg (single low dose cisplatin) alone (10 mice) or 0.5 mg/kg cisplatin in combination with GR32191 (10 mice). Tumor size was measured over time. Kaplan-Meier curves showing time to tumor onset across the treatment groups. (FIG. 9B) Pathological evaluation of tumors derived from mice treated with GR32191 (n=15) and vehicle control mice (n=12). Representative images of CD31 staining, TUNEL, staining, PCNA staining, and H&E staining are shown. Graphs on the left indicate the quantitative analysis for each of these markers. Five fields from 5 independent tumors (total 25) were counted and scored blindly. Statistically significant (p<0.05) differences compared to vehicle alone were indicated (++p<0.001 or +p<0.05).
Antigen retrieval was done by heating in a microwave oven for 5 min on high power in 10 mM citrate, pH 6.0. Sections were washed and nonspecific binding was blocked with 10% horse serum in Tris-buffered saline (TBS) (50 mM Tris-HCl, 0.9% NaCl, pH 8.0) for 20 min, then incubated overnight at 4° C. with the TP isoform-specific primary antibodies at a 1:200 dilution in the blocking solution, anti-CD31 antibody (DAKO) was used at dilution 1:25. After overnight incubation at 4° C. followed by three 10-min washes in TBS. Immpress™ horse anti-rabbit secondary was incubated (Vector Laboratories, Burlingame, Calif.) for 45 min at room temperature. Slides were counterstained with hematoxylin. PCNA staining was done utilizing mouse monoclonal antibody against human PCNA (SantaCruz) at dilution 1:200. For TUNEL staining, sections were stained using the Situ Cell Death Detection Kit (Roche Applied Science).
TCC-SUP human bladder cancer cells or SV-HUC cells stably transfected with pcDNA3, TP-α or TP-β were used in a subcutaneous model in immunocompromised (nu/nu) mice. TCC-SUP cells (5×10^6 in PBS) or SV-HUC cells (5×10^7 in Matrigel™, BD Bioscience Inc.) were injected s.c. into the right and left flanks of anesthetized mice. Tumor growth was monitored in these mice twice a week. For mice injected with TCC-SUP, GR32191 or vehicle control was administered daily (20 mg/kg) by gavage with treatment initiated 24 hrs after initial injection. Two cycles of cisplatin (single high dose (5 mg/kg) or single low dose (0.5 mg/kg)) were administrated at day 4 and day 11 post tumor cell injection.
Kaplan-Meier survival curves were constructed for overall mouse survival for two groups with and without over-expressed TP-β receptor protein. ANOVA was used to analyze the in vitro drug treatments and drug combination data. Data are presented as the mean±SD. For all statistical tests, a two-sided p-value<0.05 was used to reject the null hypothesis. Kaplan-Meier curves were used to describe time to tumor onset in each mouse group, and a Cox proportional hazards model was used to estimate and test for differences across treatment groups. Hazard ratios and their 95% confidence intervals were to describe rates of tumor onset and p-values used to compare tumor onset across groups. The proportional hazards assumption was tested using Schoenfeld residuals. Differences in tumor growth were assessed by comparing the slopes of tumor growth across groups based on a linear longitudinal two-stage analysis where slopes were estimated in stage 1 and compared across mice in stage 2. Linear regression coefficients were evaluated using Wald tests. Statistical analyses were performed using R statistical software and utilized the survival library.

T24 cells [2] = assay: Sensitivity of T24 cells to cisplatin with TP receptor antagonists; assay type: cell-based, human
Description: SV-HUC and T24 cells were seeded at 5,000 cells per well in 96-well plates, and then treated with either compound or vehicle (ethanol) alone. The number of viable cells were quantified at the indicated time points, using the MTT (3-(4,5-Dimethyl-2-thiazolyl)-2,5-diphenyl-2H-tetrazolium bromide thiazole blue) assay, performed in quadruplicate, according to the manufacturer's instructions (Sigma-Aldrich). Optical density (OD) was measured at wavelength of 550 nm with reference wavelength of 690 nm.
Cell viability was analyzed under the microscope at 200× using trypan blue staining. Flow cytometric measurements of apoptosis were as follows. After 12 hours treatment with solvent control or TP receptor antagonists, cells were washed twice in ice cold phosphate buffered saline (PBS) and resuspended in binding buffer (10 mM HEPES, 140 mM NaCl, 2.5 mM CaCl2), at 1×10^6 cells in a 400 μl volume of binding buffer, in duplicate. Cells were incubated with 10 μl of human annexin V-phycoerythrin (PE) (BD Bioscience Inc.) for 15 min at room temperature in dark. […] The TUNEL assay was performed following the protocol of the TUNEL kit's manufacturer (Roche Diagnostics).

tumor cell = assay: Combination with paclitaxel in vitro, tumor cell death; assay type: cell-based; conditions: antagonist added to paclitaxel in vitro
[3] = healthy individuals, patients with asthma or cardiovascular diseases, cited from earlier work
T24 cells [4] = assay: Western blot of FAK and ERK phosphorylation in T24 cells; assay type: cell-based, human; conditions: serum starved 12 hrs, treated 1 hr
Description: FIG. 6. Effect of TP receptor agonist (U46619) and antagonist (PTXA2) treatment on phosphorylation of FAK and ERK. T24 cells were serum starved for 12 hrs then treated with PTXA2 or U46619 for 1 hr. Tyrosine phosphorylation of FAK was assessed with western blot analysis on […] of cell lysate using anti-FAK pY397 (BD Bioscience) and pERK using a pERK specific antibody.
(§1) Tumor and normal bladder tissues were snap-frozen in liquid nitrogen within 30 minutes after the surgery. Frozen sections were stained with hematoxylin and eosin and samples identified that had at least 70% tumor cells were selected for further studies. Pulverized tissue powders were lysed in RIPA buffer (150 mM NaCl, 50 mM Tris-HCl [pH 8.0], 1% Triton X100, 0.1% SDS, 1% deoxycholate and protease inhibitor cocktail [Complete Protease Inhibitors, Roche]) for 15 minutes on ice. Equal amounts of total protein (40 μg) were resolved by 12% SDS-PAGE and subjected to Western blot analyses using ECL system (Amersham-Pharmacia). Screening Western blots for TP-α and TP-β isoform expression in bladder cancer cell lines was done using rabbit polyclonal antibodies against TP-α or TP-β (described above). SVHUC cells stably transfected with TP-α or TP-β plasmids were screened for PCNA, tubulin, GAPDH, FAK, pFAK, ERK, pERK protein (Santa Cruz) and ICAM-1 (Abcam).

TP-β = molecular target: T1, TP-β (Homo sapiens, UniProt P21731); assay: Phosphorylation of ERK and FAK in SV-HUC cells transfected with TP-β; assay type: cell-based; conditions: SV-HUC cells transfected with TP-β
T1 construct: expressed in transfected cells
T1 sequence (P21731 1-407 isoform P21731-2): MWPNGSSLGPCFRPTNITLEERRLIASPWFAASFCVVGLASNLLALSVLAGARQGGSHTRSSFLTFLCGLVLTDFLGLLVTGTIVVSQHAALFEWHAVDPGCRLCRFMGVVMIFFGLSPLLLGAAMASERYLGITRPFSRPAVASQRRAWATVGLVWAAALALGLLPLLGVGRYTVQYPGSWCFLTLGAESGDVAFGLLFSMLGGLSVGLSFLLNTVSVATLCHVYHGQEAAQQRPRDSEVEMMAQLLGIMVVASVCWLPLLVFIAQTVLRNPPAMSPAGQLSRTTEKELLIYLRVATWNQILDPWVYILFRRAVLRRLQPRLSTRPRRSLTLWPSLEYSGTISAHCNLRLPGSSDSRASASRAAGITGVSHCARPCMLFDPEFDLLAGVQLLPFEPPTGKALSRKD
Description: (§2) FIG. 7. Effects of U46619 and PTXA2 on phosphorylation of ERK and FAK. SV-HUC cells transfected with pcDNA3, TP-α or TP-β data are representative of 3 experiments.
as §1
SV-HUC cells were grown to 80% confluence and transfected with 2 μg of pcDNA3 vector encoding either the TP-α or TP-β receptor isoforms. Transfection was performed in 6-well plates using the Fugene reagent (Roche) according to the manufacturer's instructions. After 72 hours post-transfection, cells were selected with 500 μg/ml G418 (Roche) and stable pools isolated after 14 days.

TP-α = molecular target: T2, TP-α (Homo sapiens, UniProt P21731); assay: Phosphorylation of ERK and FAK in SV-HUC cells transfected with TP-α or pcDNA3; assay type: cell-based
T2 construct: expressed in transfected cells
T2 sequence (P21731 1-343): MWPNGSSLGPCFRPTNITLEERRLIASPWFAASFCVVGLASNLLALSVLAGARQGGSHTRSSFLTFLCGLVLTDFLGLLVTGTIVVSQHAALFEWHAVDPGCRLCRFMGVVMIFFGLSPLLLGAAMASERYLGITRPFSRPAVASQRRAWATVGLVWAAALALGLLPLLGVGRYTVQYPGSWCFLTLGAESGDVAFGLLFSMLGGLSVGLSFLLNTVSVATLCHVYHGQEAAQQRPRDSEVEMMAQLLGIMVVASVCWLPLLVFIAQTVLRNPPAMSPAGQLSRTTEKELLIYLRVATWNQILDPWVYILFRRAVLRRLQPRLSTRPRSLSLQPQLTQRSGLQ
Description: as §2, §1
SV-HUC cells were grown to 80% confluence and transfected with 2 μg of pcDNA3 vector encoding either the TP-α or TP-β receptor isoforms. Transfection was performed in 6-well plates using the Fugene reagent (Roche) according to the manufacturer's instructions. […]

PTN mRNA = PTN mRNA expression after receptor antagonist / agonist; assay type: cell-based; conditions: co-incubation of agonist with PTXA2
From the text: (§3) FIGS. 14A-F. TP-β regulation of pleiotrophin (PTN). […] (FIG. 14D) PTN mRNA reduction after PTXA2 treatment. The PTN mRNA levels are restored following the co-treatment with U46619. (FIG. 14E) shRNAi mediated knockdown of β-arrestin-2 reduced agonist dependent increase in PTN mRNA in HT-1376 cells (PTEN:wt), and UM-UC-3 cells (PTEN:minus). (FIG. 14F) Effect of U46619 on JNK1/2 and FOXO3a phosphorylation.

JNK1/2 and FOXO3a = assay: Effect of U46619 on JNK1/2 and FOXO3a; assay type: cell-based; conditions: agonist stimulation
From the text: as §3

TP-β and PTEN = molecular target: T3, TP-β and PTEN (Homo sapiens, UniProt P21731); assay: TP-β / PTEN co-immunoprecipitation and immunofluorescence; assay type: cell-based
T3 construct: endogenous in cells; host or cells: HT-1376 bladder cancer cells
T3 sequence (P21731 1-407 isoform P21731-2): as the sequence (P21731 1-407 isoform P21731-2) above
T3 sequence (P60484 2-403 partner limits assumed): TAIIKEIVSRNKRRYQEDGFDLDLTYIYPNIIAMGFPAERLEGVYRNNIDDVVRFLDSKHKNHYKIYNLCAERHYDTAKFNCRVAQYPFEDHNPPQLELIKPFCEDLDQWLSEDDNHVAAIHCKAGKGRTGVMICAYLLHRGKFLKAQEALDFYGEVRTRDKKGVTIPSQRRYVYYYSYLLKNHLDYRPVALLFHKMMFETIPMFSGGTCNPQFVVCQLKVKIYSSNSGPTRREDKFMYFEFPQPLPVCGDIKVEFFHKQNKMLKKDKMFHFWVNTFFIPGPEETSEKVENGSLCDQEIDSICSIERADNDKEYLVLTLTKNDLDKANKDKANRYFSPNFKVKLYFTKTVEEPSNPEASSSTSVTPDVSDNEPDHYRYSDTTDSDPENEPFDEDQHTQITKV
Description: FIGS. 13A-D. TP-β receptor localization and interaction with PTEN. (FIG. 13A) Co-immunoprecipitation followed by Western blot analysis. Immunoprecipitation with TP-α or TP-β specific antibodies was performed using extracts prepared from HT-1376 cells. […] Extracts prepared from solvent or agonist treated cells were immunoprecipitated with TP-β specific antibody. […] After TP-β stimulation with the U46619, PTEN translocated from the cytoplasm to the nuclear membrane. (FIG. 13D) PTEN lipid phosphatase activity was diminished in SV-HUC cells transfected with TP-β compared to those transfected with TP-α.

[5] = vehicle treated mice compared to GR32191 treated mice

O=C(O)CC/C=C\CC[C@@H]1[C@@H](N2CCCCC2)[C@@H](O)C[C@@H]1OCc1ccc(-c2ccccc2)cc1 [GR32191]
inhibition of cell migration and invasion (bladder cancer cells; complementary studies, data not shown): 65% | time of tumor free mice ([1]; 20 mg/kg daily by gavage): significantly (P<0.04) extended | tumor growth ([1]; 20 mg/kg daily by gavage, monitored over time): significantly inhibited | detection of palpable tumors / time of tumor onset ([1]; 20 mg/kg daily by gavage, started 24 hrs after cell injection): delayed | survival ([1]; GR32191 alone): prolonged survival | survival ([1]; GR32191 in combination with cisplatin): prolonged survival | apoptosis, TUNEL staining ([1]; GR32191 treated compared to vehicle treated mice, p<0.05): significant increase in apoptosis | microvessel density (MVD), CD31 staining ([1]; vehicle control compared to mice treated with GR32191): significantly higher (p<0.05) microvessel density | cell proliferation, PCNA staining [1, 5]: significantly increased (p<0.05) cell proliferation | percentage of undifferentiated tumors, H&E staining [1, 5]: significantly higher percentage (p<0.01) of undifferentiated tumors | sensitivity to cisplatin (T24 cells [2]): enhanced sensitivity to cisplatin | tumor cell death (tumor cell): synergistically increased tumor cell death | safety in clinical studies [3]: shown to be safe | safety in clinical studies ([3]; listed as GR): excellent safety profile

O=C(O)CCC/C=C\C[C@@H]1[C@H](CNNC(=O)Nc2ccccc2)[C@H]2CC[C@@H]1O2 [SQ29548]
sensitivity to cisplatin (T24 cells [2]): enhanced sensitivity to cisplatin | tumor cell death (tumor cell): synergistically increased tumor cell death

CCCCC[C@H](O)/C=C/[C@@H]1[C@@H](C/C=C\CCCC(=O)O)[C@H]2CO[C@@H]1C2 [U46619]
cell migration (bladder cancer cells; T-24 cells, transwell migration assay, 1 μM U46619 for 12 hours): increase in migration | phospho-ERK and phospho-FAK levels (T24 cells [4]): significantly increased; also recorded: increased phosphorylation | phosphorylation of FAK and ERK on agonist stimulation (TP-β): stimulated pERK1/2 and pFAK; also recorded: stimulated the phosphorylation of FAK and ERK | phosphorylation of FAK and ERK on agonist stimulation (TP-α): failed to stimulate | PTN expression (PTN mRNA): restored | JNK1/2 activation (JNK1/2 and FOXO3a): induced JNK1/2 activation | expression of the transcription factor FOXO3a (JNK1/2 and FOXO3a): reduced the expression | localization of TP-β and PTEN proteins (TP-β and PTEN; immunofluorescence, in the presence of agonist): translocated to the nuclear membrane | association between TP-β and PTEN (TP-β and PTEN; immunoprecipitation with TP-β specific antibody, agonist versus solvent treated cells): Increased association between TP-β and PTEN
